According to patent publication US9695192B2, “Fused heterocyclic compounds as ion channel modulators” (GILEAD SCIENCES, INC., priority 2011, dated 2017):
Like-named read-outs stand apart in the source and are kept apart here.

Columns and labels:
Assay type in all cases: cell-based
hNav1.5 Peak INa = hNav1.5 Peak INa (Homo sapiens, UniProt Q14524); assay: Peak INa screening assay (tonic block and use-dependent block)
Protocol: The assay uses an HEK293 (human embryonic kidney) cell line heterologously expressing the wild-type human cardiac sodium channel, hNav1.5, purchased from Millipore (Billerica, Mass.). No beta subunits were coexpressed with the Na channel alpha subunit. Cells are maintained with standard tissue culture procedures and stable channel expression is maintained with 400 μg/mL Geneticin in the culture medium. […] Experiments are carried out at 23-25° C. […] Currents through open sodium channels are automatically recorded and stored in the Sophion Bioscience Oracle database (Sophion Bioscience, Copenhagen, Denmark). Analysis is performed using QPatch Assay and database software and data are compiled in Excel. Compound stocks are routinely made by the Gilead Sample Bank in plastic vials to 10 mM in dimethyl sulfoxide (DMSO). […] Stocks are sonicated as necessary. […] Compounds are diluted in extracellular solution to 1 μM in glass vials and then transferred to glass well plates before robotic addition to the cells. […] Good separation between the concentrations of test compound to reduce late and peak INa is beneficial to enable separation of the desired effect to reduce late INa-induced electrical and mechanical dysfunction from the undesired effect to reduce peak INa, which can lead to slowing or block of conduction of electrical excitation in the heart. It is contemplated that the compounds of Formula I avoid significant block of peak INa. […] Analysis of peak INa generally requires correction for rundown before determining the % block of peak current by the tested compound. […] Use-dependent block refers to the accumulation of block with increased frequency of channel activation. […] It is therefore expected that reduction of peak INa by compounds of this disclosure will be greater at high heart rates, such as those during tachyarrhythmias, than at normal heart rates. […] The intracellular solution used for the Peak INa assay is the same as outlined for the Late INa assay (see above). […] After establishing the whole cell recording configuration, channels were stimulated to open with low frequency stimulation (0.1 Hz) for 7 minutes so that the recording can be monitored and the extent to which the recording has stabilized can be assessed. […] Both TB and UDB were analyzed by incorporating rundown correction for the peak INa and UDB as calculated by compensating for the small use-dependent effect of the stimulation protocol on peak INa in the absence of compound.

human Nav1.1 = biological target: T1, human Nav1.1 (Homo sapiens, UniProt P35498); assay: Nav1.1 use-dependent block, whole-cell voltage clamp, 10 Hz pulse train; conditions: Chantest conditions, read-out: NAV1.1 UDB-10 HZ % Inhibition
T1 construct: expressed in transfected cells; host or cells: HEK293, transient transfection (Qiagen Superfect), α1:β1:β2 at 10:1:1

[1] = biological target: wild-type human cardiac sodium channel, hNav1.5 (Homo sapiens, UniProt Q14524); assay: Late INa screening assay (QPatch whole cell patch clamp, tefluthrin-enhanced late sodium current); conditions: HEK293 hNav1.5, late INa activated with 10 μM Tefluthrin
Sequence of wild-type human cardiac sodium channel, hNav1.5 (Q14524 whole entry): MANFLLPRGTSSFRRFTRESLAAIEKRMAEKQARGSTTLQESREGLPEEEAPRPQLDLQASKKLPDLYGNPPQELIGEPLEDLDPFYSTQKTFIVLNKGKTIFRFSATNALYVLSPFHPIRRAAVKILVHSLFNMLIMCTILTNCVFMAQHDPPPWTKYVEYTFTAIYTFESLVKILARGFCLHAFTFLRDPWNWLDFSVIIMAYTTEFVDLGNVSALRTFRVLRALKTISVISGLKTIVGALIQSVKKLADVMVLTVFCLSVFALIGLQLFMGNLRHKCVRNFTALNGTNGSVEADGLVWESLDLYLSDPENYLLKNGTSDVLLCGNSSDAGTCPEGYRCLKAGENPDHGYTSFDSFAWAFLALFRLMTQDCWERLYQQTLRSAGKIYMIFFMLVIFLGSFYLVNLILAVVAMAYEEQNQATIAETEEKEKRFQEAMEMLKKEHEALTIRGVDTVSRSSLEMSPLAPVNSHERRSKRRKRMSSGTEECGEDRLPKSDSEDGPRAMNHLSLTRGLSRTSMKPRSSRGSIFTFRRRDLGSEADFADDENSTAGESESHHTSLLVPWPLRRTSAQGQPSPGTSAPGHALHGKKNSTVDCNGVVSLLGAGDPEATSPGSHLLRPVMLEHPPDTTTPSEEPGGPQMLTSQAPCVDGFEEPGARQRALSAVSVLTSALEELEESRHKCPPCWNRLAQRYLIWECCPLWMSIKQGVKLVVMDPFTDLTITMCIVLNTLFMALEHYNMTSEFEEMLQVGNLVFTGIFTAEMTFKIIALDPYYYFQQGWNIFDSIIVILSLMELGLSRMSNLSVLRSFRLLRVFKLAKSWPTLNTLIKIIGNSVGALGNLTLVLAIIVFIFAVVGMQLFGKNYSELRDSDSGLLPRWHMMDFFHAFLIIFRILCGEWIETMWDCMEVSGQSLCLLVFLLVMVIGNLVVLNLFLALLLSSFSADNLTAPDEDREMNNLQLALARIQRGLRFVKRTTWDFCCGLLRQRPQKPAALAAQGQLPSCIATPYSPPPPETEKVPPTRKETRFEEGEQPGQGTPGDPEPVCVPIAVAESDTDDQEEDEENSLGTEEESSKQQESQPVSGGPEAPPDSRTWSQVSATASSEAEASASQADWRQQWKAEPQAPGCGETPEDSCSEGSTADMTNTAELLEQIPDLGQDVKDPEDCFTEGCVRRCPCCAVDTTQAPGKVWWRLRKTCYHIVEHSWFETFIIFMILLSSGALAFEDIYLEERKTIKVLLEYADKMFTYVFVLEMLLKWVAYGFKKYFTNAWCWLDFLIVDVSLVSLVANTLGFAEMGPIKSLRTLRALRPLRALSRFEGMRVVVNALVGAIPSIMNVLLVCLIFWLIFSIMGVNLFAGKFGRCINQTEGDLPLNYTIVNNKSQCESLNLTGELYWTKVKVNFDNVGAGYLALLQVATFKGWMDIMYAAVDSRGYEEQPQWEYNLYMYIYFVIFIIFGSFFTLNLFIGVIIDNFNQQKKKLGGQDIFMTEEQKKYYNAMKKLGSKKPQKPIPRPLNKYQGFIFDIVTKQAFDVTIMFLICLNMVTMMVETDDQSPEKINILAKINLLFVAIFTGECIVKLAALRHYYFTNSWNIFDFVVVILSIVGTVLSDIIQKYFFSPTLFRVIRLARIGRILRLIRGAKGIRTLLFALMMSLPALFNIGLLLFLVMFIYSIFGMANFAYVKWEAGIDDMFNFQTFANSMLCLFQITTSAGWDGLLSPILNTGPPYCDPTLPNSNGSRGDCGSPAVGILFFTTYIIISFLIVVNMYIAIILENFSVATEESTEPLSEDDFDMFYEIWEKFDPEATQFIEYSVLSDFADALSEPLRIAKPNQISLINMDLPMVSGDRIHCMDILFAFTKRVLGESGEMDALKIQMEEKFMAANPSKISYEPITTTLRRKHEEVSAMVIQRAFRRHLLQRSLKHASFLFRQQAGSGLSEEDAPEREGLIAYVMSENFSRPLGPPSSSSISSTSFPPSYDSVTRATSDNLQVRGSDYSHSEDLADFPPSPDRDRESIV
How it was run: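 Automated whole-cell patch clamp of HEK293 cells stably expressing hNav1.5 (no β subunits), 23-25 °C. Late current enhanced by 10 μM tefluthrin, 250 ms steps to −20 mV from −120 mV at 0.1 Hz, measured 225-250 ms. Compounds typically 1 μM, three additions over 7-8 min; % block normalised to 0 Na baseline.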

Sequence of hNav1.5 Peak INa (Q14524 whole entry): as above

Work on `FC(F)(F)c1ccc(-c2ccc3c(c2)C(NCc2ccccc2)=NCCO3)cc1` [II-2, N-benzyl-7-(4-(trifluoromethyl)phenyl)-2,3-dihydrobenzo[f][1,4]oxazepin-5-amine] yielded an inhibition at 1 µM (hNav1.5 Peak INa; at 1 μM, 3 Hz stimulation, holding potential −100 mV, read-out: Peak UDB (use-dependent block of peak INa) % Inhibition) of 57%, an inhibition at 1 µM (hNav1.5 Peak INa; read-out: Peak TB (tonic block of peak INa) % Inhibition) of 27% and an inhibition at 1 µM (human Nav1.1) of 9%. For the same molecule, the inhibition at 1 µM [1] was 41%.
